From patent publication US12655116B2, “Substituted isophthalic acid diamides” (Bayer Aktiengesellschaft, priority 2020, dated 2026)

What was measured:
ABUTH [1] = assay: Pre-emergence herbicidal action against ABUTH; assay type: in vivo, Abutilon theophrasti
Procedure, shortened: (§1)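 Greenhouse pots of sandy loam held seeds covered with soil, onto which the compound was applied before emergence. An aqueous suspension or emulsion of WP or EC was used at 600 to 800 l/ha with 0.2% wetting agent. Percent damage was judged visually at 3 weeks.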

ALOMY [2] = assay: Pre-emergence herbicidal action against ALOMY; assay type: in vivo, Alopecurus myosuroides; settings: pre-emergence
Procedure, shortened: as §1

AMARE [3] = assay: Pre-emergence herbicidal action against AMARE; assay type: in vivo, Amaranthus retroflexus
Procedure, shortened: as §1

AVEFA [4] = assay: Pre-emergence herbicidal action against AVEFA; assay type: in vivo, Avena fatua; settings: pre-emergence
Procedure, shortened: as §1

ECHCG [5] = assay: Pre-emergence herbicidal action against ECHCG; assay type: in vivo, Echinochloa crus-galli
Procedure, shortened: as §1

HORMU [6] = assay: Pre-emergence herbicidal action against HORMU; assay type: in vivo, Hordeum murinum; settings: 80 g/ha, pre-emergence
Procedure, shortened: as §1

LOLRI = assay: Pre-emergence herbicidal action against LOLRI; assay type: in vivo, Lolium rigidum; settings: 80 g/ha
Procedure, shortened: as §1

MATIN [7] = assay: Pre-emergence herbicidal action against MATIN; assay type: in vivo, Matricaria inodora
Procedure, shortened: as §1

POLCO = assay: Pre-emergence herbicidal action against POLCO; assay type: in vivo, Polygonum convolvulus; settings: dosage 80 g/ha
Procedure, shortened: as §1

SETVI [8] = assay: Pre-emergence herbicidal action against SETVI; assay type: in vivo, Setaria viridis
Procedure, shortened: as §1

STEME [9] = assay: Pre-emergence herbicidal action against STEME; assay type: in vivo, Stellaria media
Procedure, shortened: as §1

VIOTR [10] = assay: Pre-emergence herbicidal action against VIOTR; assay type: in vivo, Viola tricolor
Procedure, shortened: as §1

DIGSA [11] = assay: Pre-emergence herbicidal action against DIGSA; assay type: in vivo, Digitaria sanguinalis
Procedure, shortened: as §1

ABUTH [12] = assay: Post-emergence herbicidal action against ABUTH; assay type: in vivo, Abutilon theophrasti; settings: visual assessment about 3 weeks after treatment vs untreated controls
Procedure, shortened: (§2)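 Foliar application at one-leaf stage of formulated test compounds, aqueous spray at 600–800 l/ha with 0.2% wetting agent. Greenhouse, optimal conditions, ~3 weeks; damage scored visually in % relative to untreated plants.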

ALOMY [13] = assay: Post-emergence herbicidal action against ALOMY; assay type: in vivo, Alopecurus myosuroides; settings: dosage 20 g/ha, visual assessment about 3 weeks after treatment vs untreated controls
Procedure, shortened: as §2

AMARE [14] = assay: Post-emergence herbicidal action against AMARE; assay type: in vivo, Amaranthus retroflexus; settings: 20 g/ha, visual assessment about 3 weeks after treatment, 100% = plants have died, 0% = like control plants
Procedure, shortened: as §2

AVEFA [15] = assay: Post-emergence herbicidal action against AVEFA; assay type: in vivo, Avena fatua; settings: visual assessment about 3 weeks after treatment, 100% = plants have died, 0% = like control plants
Procedure, shortened: as §2

ECHCG [16] = assay: Post-emergence herbicidal action against ECHCG; assay type: in vivo, Echinochloa crus-galli
Procedure, shortened: as §2

HORMU [17] = assay: Post-emergence herbicidal action against HORMU; assay type: in vivo, Hordeum murinum; settings: dosage 20 g/ha
Procedure, shortened: as §2

MATIN [18] = assay: Post-emergence herbicidal action against MATIN; assay type: in vivo, Matricaria inodora
Procedure, shortened: as §2

PHBPU [19] = assay: Post-emergence herbicidal action against PHBPU; assay type: in vivo, Pharbitis purpurea
Procedure, shortened: as §2

SETVI [20] = assay: Post-emergence herbicidal action against SETVI; assay type: in vivo, Setaria viridis
Procedure, shortened: as §2

STEME [21] = assay: Post-emergence herbicidal action against STEME; assay type: in vivo, Stellaria media
Procedure, shortened: as §2

VERPE = assay: Post-emergence herbicidal action against VERPE; assay type: in vivo, Veronica persica; settings: 20 g/ha
Procedure, shortened: as §2

VIOTR [22] = assay: Post-emergence herbicidal action against VIOTR; assay type: in vivo, Viola tricolor
Procedure, shortened: as §2

DIGSA [23] = assay: Post-emergence herbicidal action against DIGSA; assay type: in vivo, Digitaria sanguinalis
Procedure, shortened: as §2

PHBPU [24] = assay: Pre-emergence herbicidal action against PHBPU; assay type: in vivo, Pharbitis purpurea; settings: dosage 80 g/ha
Procedure, shortened: as §1

[25] = Tripleurospermum inodorum, 504 h, dosage 20 g/ha
[26] = Setaria viridis, 504 h, dosage 20 g/ha
[27] = 80 g/ha, scored visually after 3 weeks vs untreated controls (100% = plants have died, 0% = like control plants)

Cn1nnnc1NC(=O)c1ccc(C(F)(F)F)c(C(=O)NC2CC2)c1Cl [Example 1-131]
100%: pest or weed control at 80 g/ha (ABUTH [1]; Abutilon theophrasti, 504 h, 80 g/ha, scored visually after 3 weeks vs untreated controls (100% = plants have died, 0% = like control plants)) | pest or weed control at 20 g/ha (ABUTH [1]; Abutilon theophrasti, 504 h, dosage 20 g/ha, scored visually after 3 weeks vs untreated controls, 100% = plants have died, 0% = like control plants, read-out: Pre-emergence action against ABUTH (herbicidal activity in percent)) | pest or weed control at 80 g/ha (ALOMY [2]; Alopecurus myosuroides, 504 h, 80 g/ha, scored visually after 3 weeks vs untreated controls (100% = plants have died, 0% = like control plants)) | pest or weed control at 20 g/ha (AMARE [3]; Amaranthus retroflexus, 504 h, 20 g/ha, scored visually after 3 weeks vs untreated controls, 100% = plants have died, 0% = like control plants) | pest or weed control at 80 g/ha (AMARE [3]; Amaranthus retroflexus, 504 h, 80 g/ha, scored visually after 3 weeks vs untreated controls, 100% = plants have died, 0% = like control plants) | pest or weed control at 80 g/ha (AVEFA [4]; Avena fatua, 504 h, 80 g/ha) | pest or weed control at 80 g/ha (ECHCG [5]; Echinochloa crus-galli, 504 h, 80 g/ha) | pest or weed control at 20 g/ha (MATIN [7]; [25]) | pest or weed control at 80 g/ha (MATIN [7]; Tripleurospermum inodorum, 504 h, dosage 80 g/ha) | pest or weed control at 80 g/ha (SETVI [8]; Setaria viridis, 504 h, dosage 80 g/ha) | pest or weed control at 20 g/ha (STEME [9]; Stellaria media, 504 h, dosage 20 g/ha) | pest or weed control at 80 g/ha (STEME [9]; Stellaria media, 504 h, dosage 80 g/ha) | pest or weed control at 20 g/ha (VIOTR [10]; Viola tricolor, 504 h, dosage 20 g/ha) | pest or weed control at 80 g/ha (VIOTR [10]; Viola tricolor, 504 h, dosage 80 g/ha) | pest or weed control at 20 g/ha (DIGSA [11]; Digitaria sanguinalis, 504 h, dosage 20 g/ha) | pest or weed control at 80 g/ha (DIGSA [11]; Digitaria sanguinalis, 504 h, dosage 80 g/ha) | pest or weed control at 20 g/ha (AMARE [14]; Amaranthus retroflexus, 504 h) | pest or weed control at 20 g/ha (SETVI [20]; [26]) | pest or weed control at 20 g/ha (STEME [21]; Stellaria media, 504 h, 20 g/ha) | pest or weed control at 5 g/ha (VIOTR [22]; Viola tricolor, 504 h, 5 g/ha) | pest or weed control at 20 g/ha (VIOTR [22]; Viola tricolor, 504 h, 20 g/ha) | pest or weed control at 5 g/ha (DIGSA [23]; Digitaria sanguinalis, 504 h, 5 g/ha) | pest or weed control at 20 g/ha (DIGSA [23]; Digitaria sanguinalis, 504 h, 20 g/ha)
90%: pest or weed control at 5 g/ha (ABUTH [12]; Abutilon theophrasti, 504 h, dosage 5 g/ha) | pest or weed control at 20 g/ha (ABUTH [12]; Abutilon theophrasti, 504 h, dosage 20 g/ha) | pest or weed control at 20 g/ha (ALOMY [13]; Alopecurus myosuroides, 504 h) | pest or weed control at 20 g/ha (ECHCG [16]; Echinochloa crus-galli, 504 h, dosage 20 g/ha) | pest or weed control at 5 g/ha (MATIN [18]; Tripleurospermum inodorum, 504 h, dosage 5 g/ha) | pest or weed control at 20 g/ha (MATIN [18]; [25]) | pest or weed control at 20 g/ha (PHBPU [19]; Ipomoea purpurea, 504 h, dosage 20 g/ha) | pest or weed control at 20 g/ha (VERPE; Veronica persica, 504 h)
80%: pest or weed control at 20 g/ha (ALOMY [2]; Alopecurus myosuroides, 504 h, 20 g/ha, scored visually after 3 weeks, 100% = plants have died, 0% = like control plants) | pest or weed control at 20 g/ha (AVEFA [4]; Avena fatua, 504 h, 20 g/ha, scored visually after 3 weeks, 100% = plants have died, 0% = like control plants) | pest or weed control at 80 g/ha (HORMU [6]; Hordeum murinum, 504 h) | pest or weed control at 80 g/ha (LOLRI; Lolium rigidum, 504 h) | pest or weed control at 80 g/ha (POLCO; Fallopia convolvulus, 504 h) | pest or weed control at 20 g/ha (SETVI [8]; [26]) | pest or weed control at 20 g/ha (AVEFA [15]; Avena fatua, 504 h, 20 g/ha) | pest or weed control at 20 g/ha (HORMU [17]; Hordeum murinum, 504 h) | pest or weed control at 5 g/ha (STEME [21]; Stellaria media, 504 h, dosage 5 g/ha)

CCNC(=O)c1c(C(F)(F)F)ccc(C(=O)Nc2nnco2)c1Cl [Example 5-117]
80%: Pre-emergence action against ECHCG in % (ECHCG [5]; 20 g/ha) | Pre-emergence action against HORMU in % (HORMU [6]) | Pre-emergence action against LOLRI in % (LOLRI) | Pre-emergence action against POLCO in % (POLCO) | Post-emergence action against ABUTH in % (ABUTH [12]; dosage 5 g/ha) | Post-emergence action against ALOMY in % (ALOMY [13]) | Post-emergence action at 5 g/ha against AVEFA in % (AVEFA [15]; 5 g/ha) | Post-emergence action against ECHCG in % (ECHCG [16]; dosage 5 g/ha) | Post-emergence action against ECHCG in % (ECHCG [16]; dosage 20 g/ha) | Post-emergence action against HORMU in % (HORMU [17]) | Post-emergence action against MATIN in % (MATIN [18]; dosage 5 g/ha) | Post-emergence action against PHBPU in % (PHBPU [19]; dosage 5 g/ha) | Post-emergence action against VERPE in % (VERPE)
100%: Pre-emergence action against ABUTH (herbicidal activity) (ABUTH [1]; [27]) | Pre-emergence action against ABUTH (herbicidal activity in percent) (ABUTH [1]; dosage 20 g/ha, scored visually after 3 weeks vs untreated controls, 100% = plants have died, 0% = like control plants) | Pre-emergence action against ECHCG in % (ECHCG [5]; 80 g/ha) | Pre-emergence action against MATIN in % (MATIN [7]; dosage 80 g/ha) | Pre-emergence action against PHBPU in % (PHBPU [24]) | Pre-emergence action against VIOTR in % (VIOTR [10]; dosage 20 g/ha) | Pre-emergence action against VIOTR in % (VIOTR [10]; dosage 80 g/ha) | Pre-emergence action against DIGSA in % (DIGSA [11]; dosage 20 g/ha) | Pre-emergence action against DIGSA in % (DIGSA [11]; dosage 80 g/ha) | Post-emergence action at 20 g/ha against AMARE in % (AMARE [14]) | Post-emergence action against SETVI in % (SETVI [20]; dosage 5 g/ha) | Post-emergence action against SETVI in % (SETVI [20]; dosage 20 g/ha) | Post-emergence action against STEME in % (STEME [21]; 20 g/ha) | Post-emergence action against STEME in % (STEME [21]; dosage 5 g/ha) | Post-emergence action against VIOTR in % (VIOTR [22]; 20 g/ha)
90%: Pre-emergence action against ALOMY (herbicidal activity) (ALOMY [2]; [27]) | Pre-emergence action against AMARE in % (AMARE [3]; 20 g/ha, scored visually after 3 weeks vs untreated controls, 100% = plants have died, 0% = like control plants) | Pre-emergence action against AMARE in % (AMARE [3]; [27]) | Pre-emergence action against AVEFA in % (AVEFA [4]; 80 g/ha) | Pre-emergence action against MATIN in % (MATIN [7]; dosage 20 g/ha) | Pre-emergence action against SETVI in % (SETVI [8]; dosage 80 g/ha) | Pre-emergence action against STEME in % (STEME [9]; dosage 20 g/ha) | Pre-emergence action against STEME in % (STEME [9]; dosage 80 g/ha) | Post-emergence action against ABUTH in % (ABUTH [12]; dosage 20 g/ha) | Post-emergence action at 20 g/ha against AVEFA in % (AVEFA [15]; 20 g/ha) | Post-emergence action against MATIN in % (MATIN [18]; dosage 20 g/ha) | Post-emergence action against PHBPU in % (PHBPU [19]; dosage 20 g/ha) | Post-emergence action against VIOTR in % (VIOTR [22]; 5 g/ha) | Post-emergence action against DIGSA in % (DIGSA [23]; 5 g/ha) | Post-emergence action against DIGSA (DIGSA [23]; 20 g/ha)
